According to paper PMC6792352, “Limited Chemical Structural Diversity Found to Modulate Thyroid Hormone Receptor in the Tox21 Chemical Library” (Environmental Health Perspectives, 2019):
Structures can show the parent of a compound that is named as a salt. Where two headings read alike, the source gives them in different places.

Tested on: GH3-TRE-Luc cell line
Conditions: read-out: AC50 (uM) modified / 1000, viability, 1 nM T3 present, 24 h

## BrC1CCC(Br)C(Br)CCC(Br)C(Br)CCC1Br (stereo not shown) [1,2,5,6,9,10-Hexabromocyclododecane]
Tox21_110001=Tox21_201402
  CC50: 17.5 µM
Tox21_110001=Tox21_303176
  CC50: 38.8 µM

## CC(C)(C)NC(=O)[C@@H]1CN(Cc2cccnc2)CCN1C[C@@H](O)C[C@@H](Cc1ccccc1)C(=O)N[C@H]1c2ccccc2C[C@H]1O [Indinavir sulfate]
Tox21_110001=Tox21_111687
  CC50: 32 µM

## CC(C)Nc1ccc(Nc2ccccc2)cc1 [N-Isopropyl-N'-phenyl-p-phenylenediamine]
Tox21_110001=Tox21_111169
  CC50: 13.5 µM
Tox21_110001=Tox21_201424
  CC50: 36.2 µM
Tox21_110001=Tox21_303202
  CC50: 33.4 µM

## CCN1/C(=C/C=C/C=C/c2sc3ccccc3[n+]2CC)Sc2ccccc21 [Dithiazanine chloride]
Tox21_110001=Tox21_113171
  CC50: 7.02 µM

## Cc1cc(C(C)(C)C)c(O)c(C(C)(C)C)c1 [Butylated hydroxytoluene]
Tox21_110001=Tox21_113537
  CC50: 42.9 µM
Tox21_110001=Tox21_201093
  CC50: 76.4 µM

## C#C[C@]1(O)CC[C@H]2[C@@H]3CCC4=CC(=O)CC[C@@H]4[C@H]3CC[C@@]21CC (racemic) [dl-Norgestrel]
Tox21_110001=Tox21_303623
  CC50: 64.5 µM

## Oc1c(Cl)cc(Cl)cc1Sc1cc(Cl)cc(Cl)c1O [Sodium bithionolate]
Tox21_110001=Tox21_202791
  CC50: 7.44 µM

## CN(C)CCOc1ccccc1Cc1ccccc1 [Phenyltoloxamine citrate]
Tox21_110001=Tox21_110862
  CC50: 9.16 µM

## Nc1ccc(Nc2ccccc2)cc1 [N-Phenyl-1,4-benzenediamine hydrochloride]
Tox21_110001=Tox21_200117
  CC50: 57.3 µM

## CN(C)C(=S)SSC(=S)N(C)C [Thiram]
Tox21_110001=Tox21_111150
  CC50: 0.159 µM
Tox21_110001=Tox21_201569
  CC50: 12.7 µM
Tox21_110001=Tox21_301102
  CC50: 0.0524 µM

## CN(C)CCCN1c2ccccc2CCc2ccc(Cl)cc21 [Clomipramine]
Tox21_110001=Tox21_110117
  CC50: 8.96 µM

## Clc1ccc2c(c1)C(N1CCNCC1)=Nc1ccccc1O2 [Amoxapine]
Tox21_110001=Tox21_302352
  CC50: 20.3 µM

## CC(CN1c2ccccc2Sc2ccccc21)N(C)C (stereo not shown) [Promethazine]
Tox21_110001=Tox21_110227
  CC50: 17.9 µM

## O=C1C2CC=CCC2C(=O)N1SC(Cl)(Cl)Cl (stereo not shown) [Captan]
Tox21_110001=Tox21_111065
  CC50: 4.99 µM
Tox21_110001=Tox21_201276
  CC50: 76 µM
Tox21_110001=Tox21_300772
  CC50: 2.54 µM

## CCCCCCCCCCn1cc[n+](C)c1 [1-Decyl-3-methylimidazolium bromide]
Tox21_110001=Tox21_202622
  CC50: 18 µM

## CC(C)(C)c1cc(O)ccc1O [tert-Butylhydroquinone]
Tox21_110001=Tox21_110007
  CC50: 7.35 µM
Tox21_110001=Tox21_202309
  CC50: 64.9 µM
Tox21_110001=Tox21_300081
  CC50: 37.7 µM

## CCCCCCCCCCn1cc[n+](C)c1 [1-Decyl-3-methylimidazolium trifluoromethanesulfonate]
Tox21_110001=Tox21_200593
  CC50: 6.68 µM

## O=C(O)CS [Ammonium thioglycolate]
Tox21_110001=Tox21_202751
  CC50: 58.7 µM

## Oc1ccc(O)cc1 [Hydroquinone]
Tox21_110001=Tox21_110169
  CC50: 16 µM
Tox21_110001=Tox21_202345
  CC50: 32.2 µM
Tox21_110001=Tox21_300015
  CC50: 21.9 µM

## CC(=O)O[C@@]12CO[C@@H]1C[C@H](O)[C@@]1(C)C(=O)[C@H](O)C3=C(C)[C@@H](OC(=O)[C@H](O)[C@@H](NC(=O)OC(C)(C)C)c4ccccc4)C[C@@](O)([C@@H](OC(=O)c4ccccc4)[C@H]21)C3(C)C [Docetaxel]
Tox21_110001=Tox21_112781
  CC50: 0.0619 µM
Tox21_110001=Tox21_113088
  CC50: 0.364 µM

## CCC(C)(C)C(=O)O[C@H]1C[C@@H](C)C=C2C=C[C@H](C)[C@H](CC[C@@H]3C[C@@H](O)CC(=O)O3)[C@H]21 [Simvastatin]
Tox21_110001=Tox21_300400
  CC50: 72.4 µM

## C=C[C@H]1C[N@@]2CC[C@H]1C[C@H]2[C@H](O)c1ccnc2ccc(OC)cc12 [Quinine hydrochloride dihydrate]
Tox21_110001=Tox21_303565
  CC50: 50.6 µM

## Nc1ncn([C@@H]2O[C@H](CO)[C@@H](O)[C@H]2O)c(=O)n1 [5-Azacytidine]
Tox21_110001=Tox21_111032
  CC50: 5.77 µM
Tox21_110001=Tox21_302985
  CC50: 19.3 µM

## COc1ccc(CCN(C)CCCC(C#N)(c2ccc(OC)c(OC)c2)C(C)C)cc1OC (stereo not shown) [Verapamil]
Tox21_110001=Tox21_110300
  CC50: 23.2 µM

## CN(C)C(=S)SC(=S)N(C)C [Tetramethylthiuram monosulfide]
Tox21_110001=Tox21_111656
  CC50: 2.19 µM
Tox21_110001=Tox21_201554
  CC50: 1.5 µM
Tox21_110001=Tox21_302880
  CC50: 0.329 µM

## CCOc1ccc2c(c1)C(C)=CC(C)(C)N2 [Ethoxyquin]
Tox21_110001=Tox21_110388
  CC50: 39.8 µM

## c1cc(C(c2ccc(OCC3CO3)cc2)C(c2ccc(OCC3CO3)cc2)c2ccc(OCC3CO3)cc2)ccc1OCC1CO1 (stereo not shown) [1,1,2,2-(4,4',4'',4'''-Tetraglycidyloxyphenyl)ethane]
Tox21_110001=Tox21_202150
  CC50: 25.2 µM
